Experimental data: patent US12275684B2, “Methods for making and using endoxifen” (Atossa Therapeutics, Inc., priority 2017, dated 2025)
Read-outs that look alike come from different tables or passages of the source.

Experiment: Placebo controlled, dose escalation pharmacokinetic study of oral (Z)-Endoxifen capsules (serum endoxifen; incl. accumulation ratios and dose linearity)
Type: in vivo, human
Settings: female, human, serum
From the text: An objective of the study was to assess the safety and tolerability of oral (Z)-Endoxifen when administered […] orally as a capsule to healthy female volunteers. A secondary objective was to assess the pharmacokinetics of multiple doses of oral (Z)-Endoxifen in the subjects.
Generally, healthy female volunteers aged ≥18 years and ≤65 years were enrolled. 24 participants were enrolled in 3 cohorts and will be administered study drug orally. Three dose levels of orally administered (Z)-Endoxifen were investigated in 3 cohorts. In each cohort participants were randomized to receive an oral (Z)-Endoxifen or placebo in a blinded fashion. Enteric-resistant capsules used in the study were designed as delayed release capsules to resist rupture for at least 30 minutes, but typically, for about 2 hours, under gastric conditions and then open fully in intestinal fluid (DRCaps; Capsugel, a Lonza Company, USA). Enteric-resistant (Swedish Orange size Zero (0); Capsugel, USA) DRCaps capsules manually filled with 1, 2 or 4 mg of (Z)-endoxifen neat in compliance with GMP requirements were used. Placebo capsules contained microcrystalline cellulose an inert common capsule and tablet excipient.
Each cohort enrolled 8 participants, with 6 participants receiving (Z)-Endoxifen 1 mg capsules orally at 1 mg (Cohort 1), 2 mg (Cohort 2) or 4 mg (Cohort 3) doses and 2 participants receiving matching placebo capsules. In Cohort 1 (Dose Level=1 mg) two participants (sentinels) were dosed 24 hours prior to the remaining participants. One sentinel was dosed with (Z)-Endoxifen and the other with placebo. The remaining six participants in Cohort 1 were dosed as no safety concerns were identified in the sentinel participants. The non-sentinel participants in Cohort 1 were admitted to the clinical research facility at least one day later than the sentinels. There were no sentinels in Cohorts 2 and 3.
Participant engagement in this study was for a period of 56 days. These included a 28 day screening period, and a 7 day post treatment period for Pharmacokinetic (PK) sampling. There were two confinement periods, one at the beginning and one at the end of the dosing periods. Participants were confined to the clinical facility on Days-1 through to Day 2 and Days 21 and 22. If participants were to experience any clinically significant adverse events during the study, they would have been required to remain in the clinical facility for further observation at the discretion of the Principal Investigator (PI).
Healthy female volunteers were screened within 28 days prior to commencement of dosing. Participants were admitted to the clinical facility on Day-1 for up to 3 days. The first dose of (Z)-Endoxifen or placebo capsules was administered on Day 1. Following completion of all safety assessments and sampling for PK analyses, participants were discharged from the clinical facility on Day 2. The first dose on Day 1 was followed by a 6-day treatment free period (Days 2-7). Each participant returned to the clinical facility for PK blood draws and safety assessments during the treatment free period on study Days 4 and 6. On Day 8 participants commenced daily administration of (Z)-Endoxifen capsules or placebo capsules for 14 consecutive days (Days 8-21). Participants were supplied with study drug capsules and asked to self administer daily. Participants visited the clinical facility on Days 11, 14 and 17, prior to dose administration, for PK blood draws and safety assessments. On the morning of Day 21 each participant returned to the clinical facility prior to dose administration and were confined to the facility until Day 22 to allow for the collection of PK blood draws and safety assessments. The Day 21 dose was the last administration of study drug. Participants were discharged from the clinical facility on Day 22 and returned for PK blood draws and safety assessments on study Days 24, 26, and 28. […]

AUC(0-inf) (oral, 2 mg, Day 1, 2 mg, N 6, read-out: AUC0-inf, Mean): 1110 ng·h/mL
AUC(0-inf) (oral, 2 mg, Day 1, 2 mg, N 6, read-out: AUC0-inf, Median): 1100 ng·h/mL
AUC(0-t) (oral, 2 mg, Day 1, 2 mg, N 6, read-out: AUC24hr, GeoMean): 301 ng·h/mL
AUC(0-t) (oral, 2 mg, Day 1, 2 mg, N 6, read-out: AUC24hr, Mean): 305 ng·h/mL
AUC(0-t) (oral, 2 mg, Day 1, 2 mg, N 6, read-out: AUC24hr, Median): 303 ng·h/mL
AUC(0-t) (oral, 2 mg, Day 1, 2 mg, N 6, read-out: AUCTlast, GeoMean): 862 ng·h/mL
AUC(0-t) (oral, 2 mg, Day 1, 2 mg, N 6, read-out: AUCTlast, Mean): 889 ng·h/mL
AUC(0-t) (oral, 2 mg, Day 1, 2 mg, N 6, read-out: AUCTlast, Median): 955 ng·h/mL
Cmax (oral, 2 mg, Day 1, 2 mg, N 6, read-out: Cmax, GeoMean): 17.3 ng/mL
Cmax (oral, 2 mg, Day 1, 2 mg, N 6, read-out: Cmax, Mean): 17.7 ng/mL
Cmax (oral, 2 mg, Day 1, 2 mg, N 6, read-out: Cmax, Median): 17.5 ng/mL
Tmax (oral, 2 mg, Day 1, 2 mg, N 6, read-out: Tmax, GeoMean): 4.19 h
Tmax (oral, 2 mg, Day 1, 2 mg, N 6, read-out: Tmax, Mean): 4.28 h
Tmax (oral, 2 mg, Day 1, 2 mg, N 6, read-out: Tmax, Median): 4.17 h
Vd/F (oral, 2 mg, Day 1, 2 mg, N 6, read-out: Vz/F, GeoMean): 127 L
Vd/F (oral, 2 mg, Day 1, 2 mg, N 6, read-out: Vz/F, Mean): 131 L
Vd/F (oral, 2 mg, Day 1, 2 mg, N 6, read-out: Vz/F, Median): 118 L
half-life (oral, 1-4 mg, read-out: apparent terminal half life (t½) by dose level): 2520 to 3180 min
Tmax (oral, Days 1 and 21, 1-4 mg, read-out: Median Tmax by dose level): 4 to 8 h
AUC(0-inf) (oral, dosing range of 1 mg to 4 mg, read-out: AUC0-inf): 400 to 6000 ng·h/mL
AUC(0-inf) (po, 1 mg, Dose: 1 mg oral, Day 1, read-out: AUC(0-inf), individual subjects): 593 ng·h/mL
AUC(0-t) (po, 1 mg/day, Day 1, 1 mg/day oral (n = 5), read-out: AUC24 hr, Arithmetic Mean): 158 ng·h/mL
Cmax (po, 1 mg/day, Day 1, 1 mg/day oral (n = 5), read-out: Cmax, Arithmetic Mean): 9.6 ng/mL
Tmax (po, 1 mg/day, Day 1, 1 mg/day oral (n = 5), read-out: Median Tmax): 6 h
Tmax (po, 1 mg/day, Day 1, 1 mg/day oral (n = 5), read-out: Tmax (Range)): 2 to 8.08 h
half-life (po, 1 mg/day, Day 1, 1 mg/day oral (n = 5), read-out: t1/2, Arithmetic Mean (converted)): 2470 min
AUC(0-t) (po, 1 mg/day, Day 21, 1 mg/day oral (n = 5), read-out: AUC24 hr, Arithmetic Mean): 458 ng·h/mL
Cmax (po, 1 mg/day, Day 21, 1 mg/day oral (n = 5), read-out: Cmax, Arithmetic Mean): 24.6 ng/mL
Tmax (po, 1 mg/day, Day 21, 1 mg/day oral (n = 5), read-out: Median Tmax): 8 h
Tmax (po, 1 mg/day, Day 21, 1 mg/day oral (n = 5), read-out: Tmax (Range)): 4 to 6.05 h
half-life (po, 1 mg/day, Day 21, 1 mg/day oral (n = 5), read-out: t1/2, Arithmetic Mean (converted)): 3160 min
AUC(0-t) (po, 2 mg, Day 21, dose 2 mg oral once daily, GeoMean, N 6, read-out: AUC24hr): 897 ng·h/mL
Cmax (po, 2 mg, Day 21, dose 2 mg oral once daily, GeoMean, N 6, read-out: Cmax): 48.8 ng/mL
Tmax (po, 2 mg, Day 21, dose 2 mg oral once daily, GeoMean, N 6, read-out: Tmax): 3.64 h
half-life (po, 2 mg, Day 21, dose 2 mg oral once daily, GeoMean, N 6, read-out: apparent terminal half life (t½) (converted)): 2570 min
Vd/F (po, 2 mg, Day 21, dose 2 mg oral once daily, GeoMean, N 6, read-out: volume of distribution (Vd/F)): 138 L
AUC(0-t) (po, 2 mg, Day 21, dose 2 mg oral once daily, Mean, N 6, read-out: AUC24hr): 911 ng·h/mL
Cmax (po, 2 mg, Day 21, dose 2 mg oral once daily, Mean, N 6, read-out: Cmax): 50 ng/mL
Tmax (po, 2 mg, Day 21, dose 2 mg oral once daily, Mean, N 6, read-out: Tmax): 4.01 h
half-life (po, 2 mg, Day 21, dose 2 mg oral once daily, Mean, N 6, read-out: apparent terminal half life (t½) (converted)): 2600 min
Vd/F (po, 2 mg, Day 21, dose 2 mg oral once daily, Mean, N 6, read-out: volume of distribution (Vd/F)): 139 L
AUC(0-t) (po, 2 mg, Day 21, dose 2 mg oral once daily, Median, N 6, read-out: AUC24hr): 910 ng·h/mL
Cmax (po, 2 mg, Day 21, dose 2 mg oral once daily, Median, N 6, read-out: Cmax): 51 ng/mL
Tmax (po, 2 mg, Day 21, dose 2 mg oral once daily, Median, N 6, read-out: Tmax): 4 h
half-life (po, 2 mg, Day 21, dose 2 mg oral once daily, Median, N 6, read-out: apparent terminal half life (t½) (converted)): 2740 min
Vd/F (po, 2 mg, Day 21, dose 2 mg oral once daily, Median, N 6, read-out: volume of distribution (Vd/F)): 132 L
AUC(0-inf) (po, 2 mg, Dose: 2 mg oral, Day 1, read-out: AUC(0-inf), individual subjects): 1010 ng·h/mL
AUC(0-t) (po, 2 mg/day, Day 1, 2 mg/day oral (n = 6), read-out: AUC24 hr, Arithmetic Mean): 305 ng·h/mL
Cmax (po, 2 mg/day, Day 1, 2 mg/day oral (n = 6), read-out: Cmax, Arithmetic Mean): 17.7 ng/mL
Tmax (po, 2 mg/day, Day 1, 2 mg/day oral (n = 6), read-out: Median Tmax): 4.17 h
Tmax (po, 2 mg/day, Day 1, 2 mg/day oral (n = 6), read-out: Tmax (Range)): 3 to 6 h
half-life (po, 2 mg/day, Day 1, 2 mg/day oral (n = 6), read-out: t1/2, Arithmetic Mean (converted)): 2940 min
Structure (SMILES): CC/C(=C(\c1ccc(O)cc1)c1ccc(OCCNC)cc1)c1ccccc1 [(Z)-Endoxifen, (Z)-4-(1-(4-(2-(methylamino)ethoxy)phenyl)-2-phenylbut-1-enyl) phenol]
